The results in this text go back to patent publication US20020160932A1, “Uncompetitive inhibitors of helicase-primase” (priority 2000, published 2002).

One assay relates to Wild-type HSV-1 (F). Kind of assay: in vitro viral replication assay, wild-type HSV-1 (F).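 On SI Wild-type HSV-1 (F): ratio of CC50 to antiviral IC50.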 The format is cell-based, herpes simplex virus 1. The settings on record: for pIC50: in vitro viral replication assay, read-out: IC50 Wild-type HSV-1 (F); for SI Wild-type HSV-1 (F): selectivity index SI=(CC50/IC50).
The test system of assay [1] is Acyclovir-resistant HSV-1 (F) mutants. Description: microbe, parasite or virus in culture. The format is cell-based, herpes simplex virus 1.
In the next assay the test system is HSV-2 G. Kind of assay: in vitro viral replication assay, human HSV-2 G.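 On SI human HSV-2 G: ratio of CC50 to antiviral IC50.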 In kind it is cell-based, herpes simplex virus 2. The settings on record: for pIC50: in vitro viral replication assay; for SI human HSV-2 G: selectivity index SI=(CC50/IC50).
In assay [2] the test system is Active substance-resistant HSV-1 (F) mutants. Kind of assay: microbe, parasite or virus in culture. The following applies: Human alphaherpesvirus 1, read-out: IC50 Active substance-resistant HSV-1 (F) mutants.
A further assay deals with HSV-2 MS. Kind of assay: in vivo lethal challenge model, HSV-2 MS.
A further assay concerns HSV-1 Walkie. Description: in vivo lethal challenge model, HSV-1 Walki.
In a further assay the test system is PRV. Kind of assay: cells. The format is cell-based, porcine (PRV).
The next assay deals with BHV. Kind of assay: in vitro viral replication assay, bovine BHV.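 On SI bovine BHV: ratio of CC50 to antiviral IC50.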 In kind it is cell-based.
In assay [3] the test system is clinical isolates (39 HSV-1 and 19 HSV-2 isolates). Kind of assay: activity on clinical isolates. The format is cell-based, herpes simplex virus. The settings on record: 39 HSV-1 and 19 HSV-2 isolates tested.
Assay [4] deals with Active substance-resistant HSV-1 (F) mutants. The following applies: read-out: IC50 Active substance-resistant HSV-1 (F) mutants; Mutant 1 (UL5 M355V, UL5 V6621, UL52 A897T).
[5] abbreviates: p.o., mice, 3 times a day for 5 days, survival.

pIC50: −log10 of the molar value. Read-outs that look alike come from different tables or passages of the source.

Method for HSV-1 Walkie: (§1) 6-week old female mice, strain BALB/cABom, were purchased from a commercial breeder (Bomholtgard Breeding and Research Centre Ltd).
(§2) The animals were anaesthetized with diethyl ether (Merck) in a sealed glass vessel. 50 μl of a dilution of the virus stock (dose for infection 5×10^4 Pfu) were introduced with an Eppendorf pippette into the nose of the anaesthetized animals. This dose leads to death of 90-100% of the animals due to a generalized infection with prominent respiratory and central nervous symptoms after on average between 5 and 8 days.
(§3) 6 hours after the infection, the animals were treated with doses of 0.1-100 mg/kg of body weight 3 times day at 7.00 h, 14.00 h and 19 h over a period of 5 days. The substances were dissolved in DMSO and resuspended in Tylose/PBS (Hoechst) (final concentration 1.5% DMSO, 0.5% Tylose in PBS).
(§4) After the last administration, the animals were observed further and the times of death were recorded.
Method for HSV-2 MS: as §1, §2, §3, §4

The pIC50 is the IC50 on a negative log10 scale, so that one unit is a factor of ten. Broadly, the ED50 is the dose that gives a 50% effect, or the effect in half of the subjects. Consider `Nc1nc2c(ncn2COCCO)c(=O)[nH]1` [Acyclovir, acyclovir, reference compound], for which the pIC50 in the assay with Wild-type HSV-1 (F) (Human alphaherpesvirus 1) is 6.00; in assay [1] (Human alphaherpesvirus 1, read-out: IC50 Acyclovir-resistant HSV-1 (F) mutants), 3.90; in the assay on HSV-2 G (Human alphaherpesvirus 2), 5.40; in assay [2], 6.00. Besides, the “SI Wild-type HSV-1 (F)” value in the assay on Wild-type HSV-1 (F) is recorded as 250. Further, in the assay on HSV-2 G, the “SI human HSV-2 G” value turned out to be 125. Besides, the ED50 with HSV-2 MS (Human alphaherpesvirus 2, in Mus musculus, po, 120 h, read-out: in vivo lethal challenge model HSV-2 MS ED50, p.o., mice, 3 times a day for 5 days, survival) was 16 mg/kg; in the assay with HSV-1 Walkie (Human alphaherpesvirus 1, in Mus musculus, po, 120 h, read-out: in vivo lethal challenge model HSV-1 Walkie ED50), 22 mg/kg.

On to `Cc1nc(N(C)C(=O)Nc2ccc(N3CCOCC3)cc2)sc1S(=O)(=O)N(C)C` [Example 1], for which the pIC50 was 6.12 in the assay on Wild-type HSV-1 (F); 6.12 in assay [1] (in vitro viral replication assay, read-out: IC50 Acyclovir-resistant HSV-1 (F) mutants); 5.82 in the assay with HSV-2 G; 5.40 with PRV (read-out: IC50 porcine PRV); 5.82 in the assay with BHV (in vitro viral replication assay); less than 3.60 in assay [4]. The “SI Wild-type HSV-1 (F)” value with Wild-type HSV-1 (F) is recorded as 350. The “SI human HSV-2 G” value in the assay with HSV-2 G worked out at 167. Further, the “SI porcine PRV” value in the assay on PRV was greater than 63. The “SI bovine BHV” value in the assay on BHV (selectivity index SI=(CC50/IC50)) was greater than 167. In assay [3], the “activity on clinical isolates” value is “active on all the clinical isolates tested to date”. Further, the “in vivo lethal challenge model HSV-2 MS ED50” value with HSV-2 MS (setting [5]) is on record as “weak”. The “in vivo lethal challenge model HSV-1 Walkie ED50” value in the assay with HSV-1 Walkie (setting [5]) came to 60 mg/kg.
